Data published in patent publication US12653851B2, “Isolated recombinant oncolytic adenoviruses, pharmaceutical compositions, and uses thereof for drugs for treatment of tumors and/or cancers” (HANGZHOU CONVERD CO., LTD., priority 2017, dated 2026).
“Also recorded” adds a separate entry of the source.

Columns and labels:
[1] = test system: human PDL1 protein fused with 3×FLAG tag; assay: inhibitory effect of shPDL1 on over-expressed hPDL1 protein in 293T cells, Western blot; type: cell-based; details: 293T cells co-transfected 1:1 with pcDNA3.3-hPDL1-3×FLAG, 48 hours
Procedure: 293T cells were transiently transfected with plasmids pSGU6/GFP/Neo-shPDL1-NC, pSGU6/GFP/Neo-shPDL1-1, pSGU6/GFP/Neo-shPDL1-2 and pSGU6/GFP/Neo-shPDL1-3 with pcDNA3.3-hPDL1-3×FLAG at an equimolar ratio (1:1), respectively, wherein plasmid pcDNA3.3-hPDL1-3×FLAG expresses the human PDL1 protein fused with 3×FLAG tag. Cell samples were collected after 48 hours, and Western blot analysis was performed after cell lysis.

[2] = test system: hPDL1 mRNA (human PDL1 mRNA); assay: inhibitory effect of shPDL1 on hPDL1 mRNA, Real-time PCR; type: cell-based; details: U251 and H460 cells, 24 h and 48 h after transfection, compared to control shRNA
Procedure: U251 and H460 cells were seeded in 12-well plates at 2×10^5 cells per well, respectively, 12 hours in advance. U251 and H460 cells in each well were transfected with 1.6 μg shRNA expression vector DNA in a ratio to 4 μl lipofectamin 2000. Two cell samples were taken over 24 hours and 48 hours, respectively. After the total RNA was extracted and reverse transcription was performed, the expression level of human PDL1 mRNA in cells was detected by Real-time PCR with the mRNA level of GAPDH gene as a control.

Substance | over-expressed hPDL1 protein [1] | inhibitory effect on hPDL1 mRNA [2]
shPDL1-#1 (GGGAAATGGAGGATAAGAACATTCAAGAGATGTTCTTATCCTCCATTTCCCTT; expressed or natural sequence) | significantly reduce | inhibitory effect; also recorded: most significant inhibitory effect
shPDL1-#2: shRNA (coding sequence SEQ ID NO. 19) targeting region 430-452 of human PDL1 mRNA (DNA GGATCCAGTCACCTCTGAACATTCAAGAGATGTTCAGAGGTGACTGGATCCTT) |  | inhibitory effect
shPDL1-#3: shRNA (coding sequence SEQ ID NO. 22) targeting region 589-611 of human PDL1 mRNA (DNA GAGAATCAACACAACAACTAATTCAAGAGATTAGTTGTTGTGTTGATTCTCTT) |  | inhibitory effect
